Values quoted from earlier work in article PMC8879107, “A3 Adenosine Receptor Antagonists with Nucleoside Structures and Their Anticancer Activity” (Pharmaceuticals, 2022).

Legend:
human A3AR = target: T1, human A3AR (Homo sapiens, UniProt P0DMS8); set-up: expressed in transfected cells; host or cells: CHO cells stably expressing A3AR and the GloSensor biosensor plasmid; method as in PMID 29763615, PMID 19839592; settings: cited from earlier work
T1 sequence (P0DMS8 1-318): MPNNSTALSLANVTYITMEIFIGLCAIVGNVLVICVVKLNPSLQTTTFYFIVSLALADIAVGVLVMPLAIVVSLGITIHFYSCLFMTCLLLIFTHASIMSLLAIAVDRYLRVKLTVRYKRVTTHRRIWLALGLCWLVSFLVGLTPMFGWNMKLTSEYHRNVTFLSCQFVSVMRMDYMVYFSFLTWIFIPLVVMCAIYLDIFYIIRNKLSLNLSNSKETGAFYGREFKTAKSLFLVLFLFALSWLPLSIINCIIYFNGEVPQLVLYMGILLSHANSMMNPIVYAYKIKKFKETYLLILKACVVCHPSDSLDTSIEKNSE

[1] = tested on: human prostate (PC3), colon (Caco-2) and hepatocyte (Hep G2) carcinomas; set-up: method as in PMID 29763615; settings: all three tumor cell lines PC3, Caco-2, Hep G2; cited from earlier work

CNC(=O)[C@H]1O[C@@H](n2cnc3c(NC)nc(C#Cc4ccccc4)nc32)[C@H](O)[C@@H]1O [Compound 3, N^6-methyl-2-phenylethynyladenosine-5′-N-methyluronamide, reference compound]
functional behaviour at A3AR (human A3AR): full A3AR agonist
anticancer effect (cell growth inhibition) [1]: almost inactive
